The assay has as its system Human immunodeficiency virus. The experiment in a line: Antiviral activity against HIV infected in human 1A2 cells assessed as protection against virus-induced cytopathic effect by measuring cell viability at 5 ug/ml after 96 hrs by MTT assay relative to control. The format is functional. In general terms: Cytopathic effects are the visible damage that an infection or toxin causes in cultured cells.
For the molecule `COC(=O)NCCc1ccccc1C(=O)NCCc1ccccc1C(=O)NCCc1ccccc1C(=O)NCCc1ccccc1C(=O)NCCc1ccccc1`, the Activity is 17 - 48%.
The value for `COC(=O)NCCc1ccccc1C(=O)NCCc1ccccc1C(=O)NCCc1ccccc1` was 17 - 48%.
As for `O=C(NCCc1ccccc1)NCCc1ccccc1C(=O)NCCc1ccccc1C(=O)NCCc1ccccc1`, the Activity is given as 17 - 48%.
The same measure for `O=C(NCCc1ccccc1)NCCc1ccccc1C(=O)NCCc1ccccc1C(=O)NCCc1ccccc1C(=O)NCCc1ccccc1`: 17 - 48%; for `COC(=O)NCCc1ccccc1C(=O)NCCc1ccccc1C(=O)NCCc1ccccc1C(=O)NCCc1ccccc1`: 17 - 48%; for `COC(=O)NCCc1ccccc1C(=O)NCCc1ccccc1`: 17 - 48%.
The value for `O=C(NCCc1ccccc1C(=O)NCCc1ccccc1)NCCc1ccccc1C(=O)NCCc1ccccc1C(=O)NCCc1ccccc1` was 17 - 48%.
The value for `O=C(NCCc1ccccc1C(=O)NCCc1ccccc1)NCCc1ccccc1C(=O)NCCc1ccccc1` was 17 - 48%.

The values above are taken from ChEMBL document CHEMBL4190205 (2017).
